Data reported in US9388179B2, “N-substituted indazole sulfonamide compounds with selective activity in voltage-gated sodium channels” (Merck Sharp & Dohme Corp., priority 2012, dated 2016).

Experiments:
Assay type in all cases: cell-based
Nav 1.7 = biological target: T1, Nav 1.7 (Homo sapiens, UniProt Q15858); test: Comparative examples, Nav 1.7 activity (Patch Express or Ion Works, technique not given); conditions: Table IX, read-out: Activity: Nav 1.7 potency
T1 construct: expressed in transfected cells; host or cells: HEK 293
T1 sequence (Q15858 whole entry): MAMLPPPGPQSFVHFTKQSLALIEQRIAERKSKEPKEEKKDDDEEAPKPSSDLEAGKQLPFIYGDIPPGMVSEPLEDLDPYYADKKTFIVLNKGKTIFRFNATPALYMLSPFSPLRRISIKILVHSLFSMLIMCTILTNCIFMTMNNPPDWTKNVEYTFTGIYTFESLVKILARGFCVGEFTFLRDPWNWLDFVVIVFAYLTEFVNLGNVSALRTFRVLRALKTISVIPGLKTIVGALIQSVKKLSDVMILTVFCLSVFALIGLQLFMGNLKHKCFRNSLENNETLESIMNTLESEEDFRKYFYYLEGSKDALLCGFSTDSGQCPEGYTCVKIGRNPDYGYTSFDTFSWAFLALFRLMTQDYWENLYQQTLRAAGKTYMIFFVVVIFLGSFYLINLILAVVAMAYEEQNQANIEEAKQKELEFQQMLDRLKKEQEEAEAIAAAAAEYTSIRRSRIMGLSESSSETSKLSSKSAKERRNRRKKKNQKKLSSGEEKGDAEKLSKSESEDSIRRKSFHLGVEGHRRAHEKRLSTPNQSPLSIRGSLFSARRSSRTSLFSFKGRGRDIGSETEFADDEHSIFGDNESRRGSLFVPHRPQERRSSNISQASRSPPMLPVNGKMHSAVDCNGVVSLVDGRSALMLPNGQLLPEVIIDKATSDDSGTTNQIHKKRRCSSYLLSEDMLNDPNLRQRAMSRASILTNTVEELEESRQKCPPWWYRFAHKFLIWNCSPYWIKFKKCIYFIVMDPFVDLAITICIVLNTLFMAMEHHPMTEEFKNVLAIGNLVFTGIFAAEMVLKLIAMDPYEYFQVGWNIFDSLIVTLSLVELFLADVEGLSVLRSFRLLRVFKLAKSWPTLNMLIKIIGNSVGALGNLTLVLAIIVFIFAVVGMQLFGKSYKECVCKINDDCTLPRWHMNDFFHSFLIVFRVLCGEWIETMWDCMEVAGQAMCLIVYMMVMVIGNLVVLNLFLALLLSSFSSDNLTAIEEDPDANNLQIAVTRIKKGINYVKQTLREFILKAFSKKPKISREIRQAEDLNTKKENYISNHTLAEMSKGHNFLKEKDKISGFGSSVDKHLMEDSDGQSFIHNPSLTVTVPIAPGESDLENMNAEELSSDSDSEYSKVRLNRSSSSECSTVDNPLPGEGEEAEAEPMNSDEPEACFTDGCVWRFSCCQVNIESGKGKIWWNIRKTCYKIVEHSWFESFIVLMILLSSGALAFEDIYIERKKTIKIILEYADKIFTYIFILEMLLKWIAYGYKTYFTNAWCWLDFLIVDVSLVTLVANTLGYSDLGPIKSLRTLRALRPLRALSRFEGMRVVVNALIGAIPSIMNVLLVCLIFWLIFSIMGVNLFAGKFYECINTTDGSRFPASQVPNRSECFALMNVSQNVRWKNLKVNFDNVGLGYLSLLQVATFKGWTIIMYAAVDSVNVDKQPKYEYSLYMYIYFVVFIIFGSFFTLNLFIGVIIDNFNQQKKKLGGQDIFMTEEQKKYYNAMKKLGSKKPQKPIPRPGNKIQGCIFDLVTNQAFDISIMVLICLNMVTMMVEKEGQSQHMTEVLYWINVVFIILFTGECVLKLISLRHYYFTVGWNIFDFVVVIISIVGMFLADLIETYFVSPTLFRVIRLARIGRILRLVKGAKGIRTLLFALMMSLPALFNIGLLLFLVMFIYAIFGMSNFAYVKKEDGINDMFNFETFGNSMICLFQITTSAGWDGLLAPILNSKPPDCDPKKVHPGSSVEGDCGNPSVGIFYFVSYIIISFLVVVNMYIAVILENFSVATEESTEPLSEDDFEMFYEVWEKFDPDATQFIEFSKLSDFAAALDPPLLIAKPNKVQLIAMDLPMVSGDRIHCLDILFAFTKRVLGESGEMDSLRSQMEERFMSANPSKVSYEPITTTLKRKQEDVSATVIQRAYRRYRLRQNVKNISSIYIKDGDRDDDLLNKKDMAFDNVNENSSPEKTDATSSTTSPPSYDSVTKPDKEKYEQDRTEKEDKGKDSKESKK
Experimental: (§1) Potency of the example compounds was assayed using Patch Express or Ion Works techniques, as reported herein. The results are reported below following each example number as follows: Ex-(no.) Nav 1.7 potency (nM) [ratio 1.5:1.7=Nav 1.5 potency (nM)/Nav1.7 potency (nM)].

Nav 1.5 = biological target: T2, Nav 1.5 (Homo sapiens, UniProt Q14524); test: Comparative examples, Nav 1.5 activity (Patch Express or Ion Works, technique not given); conditions: Table IX
T2 construct: expressed in transfected cells; host or cells: HEK 293
T2 sequence (Q14524 whole entry): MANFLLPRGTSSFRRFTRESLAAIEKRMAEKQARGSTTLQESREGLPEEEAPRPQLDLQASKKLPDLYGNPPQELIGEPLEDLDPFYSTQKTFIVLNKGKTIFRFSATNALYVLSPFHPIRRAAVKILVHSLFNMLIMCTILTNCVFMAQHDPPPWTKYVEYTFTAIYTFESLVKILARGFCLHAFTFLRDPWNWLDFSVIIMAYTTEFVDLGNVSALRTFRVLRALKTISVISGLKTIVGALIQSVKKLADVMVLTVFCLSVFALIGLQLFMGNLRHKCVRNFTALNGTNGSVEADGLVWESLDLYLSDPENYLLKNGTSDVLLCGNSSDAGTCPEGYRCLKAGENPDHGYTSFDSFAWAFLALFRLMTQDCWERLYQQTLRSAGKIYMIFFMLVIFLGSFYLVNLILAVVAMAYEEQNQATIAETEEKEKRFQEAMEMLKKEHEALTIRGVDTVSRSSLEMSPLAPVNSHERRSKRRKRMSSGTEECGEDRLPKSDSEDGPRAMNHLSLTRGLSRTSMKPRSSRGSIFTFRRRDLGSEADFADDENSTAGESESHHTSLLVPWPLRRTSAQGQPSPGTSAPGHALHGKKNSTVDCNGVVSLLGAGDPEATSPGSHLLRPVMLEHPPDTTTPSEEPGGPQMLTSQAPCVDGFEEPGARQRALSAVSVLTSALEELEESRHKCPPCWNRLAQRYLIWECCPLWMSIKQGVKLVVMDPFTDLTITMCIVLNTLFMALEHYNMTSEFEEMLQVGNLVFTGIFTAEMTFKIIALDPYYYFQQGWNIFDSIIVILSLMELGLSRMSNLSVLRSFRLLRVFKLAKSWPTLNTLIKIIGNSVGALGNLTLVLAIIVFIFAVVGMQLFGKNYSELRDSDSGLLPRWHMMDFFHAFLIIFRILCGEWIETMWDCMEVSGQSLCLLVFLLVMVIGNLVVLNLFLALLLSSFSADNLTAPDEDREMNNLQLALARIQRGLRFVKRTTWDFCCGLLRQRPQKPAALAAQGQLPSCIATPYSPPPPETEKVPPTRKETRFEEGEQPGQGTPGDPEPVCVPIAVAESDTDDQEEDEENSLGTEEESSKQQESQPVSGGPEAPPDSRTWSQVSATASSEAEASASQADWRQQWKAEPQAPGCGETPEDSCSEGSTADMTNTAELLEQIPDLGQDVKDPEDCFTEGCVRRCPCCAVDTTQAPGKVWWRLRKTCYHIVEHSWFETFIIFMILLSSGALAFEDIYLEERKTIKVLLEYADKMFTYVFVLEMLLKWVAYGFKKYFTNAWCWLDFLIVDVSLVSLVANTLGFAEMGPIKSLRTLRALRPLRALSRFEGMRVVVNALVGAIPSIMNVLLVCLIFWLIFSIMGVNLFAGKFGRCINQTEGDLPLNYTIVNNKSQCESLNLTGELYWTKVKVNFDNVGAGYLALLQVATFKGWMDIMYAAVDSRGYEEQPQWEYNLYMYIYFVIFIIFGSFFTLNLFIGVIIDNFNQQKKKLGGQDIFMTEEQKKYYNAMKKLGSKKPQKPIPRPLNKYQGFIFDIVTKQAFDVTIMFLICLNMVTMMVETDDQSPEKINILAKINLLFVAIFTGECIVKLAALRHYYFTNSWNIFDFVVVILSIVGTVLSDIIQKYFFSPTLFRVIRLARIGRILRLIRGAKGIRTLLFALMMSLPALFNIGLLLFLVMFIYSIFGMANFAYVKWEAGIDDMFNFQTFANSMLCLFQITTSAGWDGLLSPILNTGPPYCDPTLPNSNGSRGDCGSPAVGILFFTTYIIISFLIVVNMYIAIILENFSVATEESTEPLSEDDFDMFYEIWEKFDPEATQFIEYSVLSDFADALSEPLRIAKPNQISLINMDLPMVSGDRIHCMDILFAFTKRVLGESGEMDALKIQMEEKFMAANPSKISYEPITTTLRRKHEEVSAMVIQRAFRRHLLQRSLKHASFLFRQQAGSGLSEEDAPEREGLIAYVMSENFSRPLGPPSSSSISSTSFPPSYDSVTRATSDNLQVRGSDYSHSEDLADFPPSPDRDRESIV
Experimental: as §1

[1] = biological target: T3, human Nav1.7 channels stably expressed in HEK 293 cells (Homo sapiens, UniProt Q15858); test: PatchXpress 7000 automated patch-clamp, inactivated state block; conditions: PatchXpress technique; read-out: Nav 1.7 potency
T3 construct: expressed in transfected cells; host or cells: HEK 293
T3 sequence (Q15858 whole entry): as the sequence (Q15858 whole entry) above

[2] = biological target: T4, human Nav1.5 channels stably expressed in HEK 293 cells (Homo sapiens, UniProt Q14524); test: as above; conditions: PatchXpress technique
T4 construct: expressed in transfected cells; host or cells: HEK 293

[3] = biological target: T3, human Nav1.7 channels stably expressed in HEK 293 cells; test: IonWorks Quattro automated patch-clamp, inactivated state block; conditions: IonWorks technique; read-out: Nav 1.7 potency
Experimental: (§2) For all electrophysiology experiments, offline analysis was used to correct for current rundown and to determine percent inhibition as a function of drug concentration. IC50 values were determined by fitting to the Hill equation.
(§3) Cell Based Assays for Nav 1.7 and Nav 1.5 Activity
(§4) Compounds were tested on human Nav1.7 and Nav1.5 channels stably expressed in HEK 293 cells. […] Cells were sealed on a planar substrate using the Population Patch […] (PPC) technology. Electrical access was obtained using both nystatin and amphotericin. A double-pulse protocol was used for the determination of IC50 values for inactivated state block. Nav1.7 and Nav1.5 expressing cells were voltage clamped at −100 mV and −110 mV, respectively. A depolarizing prepulse to −10 mV (Nav1.7) or −30 mV (Nav1.5) for 1000 ms followed by a 10 ms repolarization to −100 mV (Nav1.7) or −110 mV (Nav1.5) was given to generate fractional channel inactivation of 50%, followed by a 10 ms test pulse to −10 mV (Nav1.7) or −30 mV (Nav1.5) to measure peak current in control conditions and after compound addition. The following recording solutions were used (mM). External: 150 NaCl, 2 CaCl2, 5 KCl, 1 MgCl2, 10 HEPES, 12 Dextrose; internal: 120 CsF, 30 CsCl, 10 EGTA, 5 HEPES, 5 NaF, 2 MgCl2.

[4] = biological target: T4, human Nav1.5 channels stably expressed in HEK 293 cells; test: as above; conditions: IonWorks technique
Experimental: as §2, §3, §4

SMILES | IC50 (Nav 1.7) | IC50 [1] | IC50 [3] | Activity: Ratio 1.5:1.7 (Nav 1.5) | Ratio 1.5:1.7 = Nav 1.5 potency (nM)/Nav1.7 potency (nM) [2] | Ratio 1.5:1.7 = Nav 1.5 potency (nM)/Nav1.7 potency (nM) [4]
O=S(=O)(Nc1nccs1)c1ccc2c(cnn2Cc2ccc(OC(C(F)(F)F)(C(F)(F)F)C(F)(F)F)cc2)c1 [CE-02, 1-(4-(1,1,1,3,3,3-hexafluoro-2-(trifluoro-methyl)propan-2-yloxy)benzyl)-N-(thiazol-2-yl)-1H-indazole-5-sulfonamide] | 33000 nM | – | – | 1 | – | –
O=S(=O)(Nc1nccs1)c1ccc2nn(Cc3ccc(OC(C(F)(F)F)(C(F)(F)F)C(F)(F)F)cc3)cc2c1 [CE-03, 2-(4-(1,1,1,3,3,3-hexafluoro-2-(trifluoro-methyl)propan-2-yloxy)benzyl)-N-(thiazol-2-yl)-2H-indazole-5-sulfonamide] | 33000 nM | – | – | 1 | – | –
Nc1cc(-c2cc(Cl)ccc2Cn2ncc3cc(S(=O)(=O)Nc4ncns4)ccc32)ccn1 [CE-01, 1-(2-(2-aminopyridin-4-yl)-4-chlorobenzyl)-N-(1,2,4-thiadiazol-5-yl)-1H-indazole-5-sulfonamide] | 27000 nM | – | – | 1 | – | –

The next lines start with results.

IC50 (Nav 1.7) | IC50 [1] | IC50 [3] | SMILES | Activity: Ratio 1.5:1.7 (Nav 1.5) | Ratio 1.5:1.7 = Nav 1.5 potency (nM)/Nav1.7 potency (nM) [2] | Ratio 1.5:1.7 = Nav 1.5 potency (nM)/Nav1.7 potency (nM) [4]
– | 1130 nM | 856 nM | CN(C)CCNC(=O)c1cccc(-c2ccccc2Cn2ncc3cc(S(=O)(=O)Nc4ncns4)c(F)cc32)c1 [Ex-8, N-[2-(dimethylamino)ethyl]-2′-{[6-fluoro-5-(1,2,4-thiadiazol-5-ylsulfamoyl)-1H-indazol-1-yl]methyl}biphenyl-3-carboxamide] | – | 27 | 39
– | 343 nM | 1480 nM | C[C@@H](c1ccccc1)n1ncc2cc(S(=O)(=O)Nc3ncns3)c(F)cc21 [Ex-11, 6-fluoro-1-[(1S)-1-phenylethyl]-N-1,2,4-thiadiazol-5-yl-1H-indazole-5-sulfonamide] | – | 32 | 11
